# Measured values taken from patent US20090076049A1, “Novel Spiro [Imidazolidine-4, 3' -Indole] 2, 2', 5' (1H) Triones for Treatment of Conditions Associated with Vanilloid Receptor 1” (AstraZeneca AB, priority 2006, published 2009).
# Biological target: T1, hVR1 (Homo sapiens, UniProt Q8NER1)
# T1 construct: expressed in transfected cells; host or cells: CHO cells, stably transfected
# Assay: hVR1 FLIPR (Fluorometric Image Plate Reader) screening assay, IC50 determination
# Type: cell-based
# Conditions: transfected CHO cells stably expressing hVR1; Fluo-4 calcium signal; agonist 50 nM capsaicin or MES buffer pH 5.2
# Description: 1. hVR1 FLIPR (Fluorometric Image Plate Reader) Screening Assay
# Transfected CHO cells, stably expressing hVR1 (15,000 cells/well) are seeded in 50 μL media in a black clear bottom 384 plate (Greiner) and grown in a humidified incubator (37° C., 2% CO2), 24-30 hours prior to experiment.
# Subsequently, the media is removed from the cell plate by inversion and 2 μM Fluo-4 is added using a multidrop (Labsystems). Following the 40 min dye incubation in the dark at 37° C. and 2% CO2, the extracellular dye present is washed away using an EMBLA (Scatron), leaving the cells in 40 μL of assay buffer (1×HBSS, 10 mM D-Glucose, 1 mM CaCl2, 10 mM HEPES, 10×7.5% NaHCO3 and 2.5 mM Probenecid).
# FLIPR Assay—IC50 Determination Protocol
# For IC50 determinations the fluorescence is read using FLIPR filter 1 (em […]). A cellular baseline recording is taken for 30 seconds, followed by a 20 μL addition of 10, titrated half-log concentrations of the test compound, yielding cellular concentration ranging from 3 μM to 0.1 nM. Data is collected every 2 seconds for a further 5 min prior to the addition of a VR1 agonist solution: either 50 nM solution of capsaicin or MES (2-[N-morpholino]ethanesulfonic acid) buffer (pH 5.2), by the FLIPR pipettor. The FLIPR continues to collect data for a further 4 min. Compounds having antagonistic properties against the hVR1 will inhibit the increase in intracellular calcium in response to the capsaicin addition. This consequently leading to a reduction in fluorescence signal and providing a reduced fluorescence reading, compared with no compound, buffer controls. Data is exported by the FLIPR program as a sum of fluorescence calculated under the curve upon the addition of capsaicin. Maximum inhibition, Hill slope and IC50 data for each compound are generated.
# T1 sequence (Q8NER1 whole entry): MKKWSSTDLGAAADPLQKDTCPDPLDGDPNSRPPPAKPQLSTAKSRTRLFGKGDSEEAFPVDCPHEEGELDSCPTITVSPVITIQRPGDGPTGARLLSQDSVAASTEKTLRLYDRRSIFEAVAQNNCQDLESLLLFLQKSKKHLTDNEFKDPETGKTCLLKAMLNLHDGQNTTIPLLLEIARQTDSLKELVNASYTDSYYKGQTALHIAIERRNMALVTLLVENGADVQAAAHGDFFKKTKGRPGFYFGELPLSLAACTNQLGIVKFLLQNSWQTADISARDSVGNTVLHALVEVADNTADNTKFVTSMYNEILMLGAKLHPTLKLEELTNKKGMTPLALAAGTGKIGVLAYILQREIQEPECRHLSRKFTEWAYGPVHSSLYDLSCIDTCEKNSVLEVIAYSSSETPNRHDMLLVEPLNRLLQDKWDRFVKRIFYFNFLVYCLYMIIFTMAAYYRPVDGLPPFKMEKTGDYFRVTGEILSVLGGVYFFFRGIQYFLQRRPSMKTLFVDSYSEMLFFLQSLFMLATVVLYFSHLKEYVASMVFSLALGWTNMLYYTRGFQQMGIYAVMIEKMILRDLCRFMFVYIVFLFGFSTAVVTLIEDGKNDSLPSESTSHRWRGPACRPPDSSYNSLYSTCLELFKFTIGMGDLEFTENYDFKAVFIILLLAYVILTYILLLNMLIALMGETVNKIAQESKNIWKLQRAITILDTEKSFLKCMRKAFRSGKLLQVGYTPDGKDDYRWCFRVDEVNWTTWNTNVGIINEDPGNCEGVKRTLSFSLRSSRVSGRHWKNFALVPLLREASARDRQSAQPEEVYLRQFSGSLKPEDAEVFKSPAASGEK
row,IC50 [µM],SMILES
1,3,O=C1NC(=O)C2(N1)C(=O)N(C/C=C/c1ccc(Cl)c(Cl)c1)c1ccc(OC(F)(F)F)cc12 (stereo not drawn) [Compound 3]
2,2.11,"CN1C(=O)N(C)C2(C1=O)C(=O)N(C/C=C/c1ccc(Cl)c(Cl)c1)c1ccccc12 (stereo not drawn) [Compound 5, 1′-[(2E)-3-(3,4-dichlorophenyl)prop-2-en-1-yl]-1,3-dimethyl-2H,5H-spiro[imidazolidine-4,3′-indole]-2,2′,5(1′H)-trione]"
3,3.01,"COCCN1C(=O)N(CCOC)C2(C1=O)C(=O)N(C/C=C/c1ccc(Cl)c(Cl)c1)c1ccccc12 (stereo not drawn) [Compound 7, 1′-[(2E)-3-(3,4-dichlorophenyl)prop-2-en-1-yl]-1,3-bis(2-methoxyethyl)-2H,5H-spiro[imidazolidine-4,3′-indole]-2,2′,5(1′H)-trione]"
